Experimental data as given in patent publication US8575116B1, “Polyacetylenic compounds for protecting against pancreatic islet atrophy” (Academia Sinica, priority 2010, dated 2013).
Entries after “also recorded” stand apart in the source; their conditions may differ.

What was measured:
db/db mice = test: Long-term treatment of diabetic db/db mice: blood glucose and blood insulin; type: in vivo, mouse
Experimental: FIGS. 1A-F show the anti-diabetic effects of cytopiloyne in db/db mice during long-term treatment. (A) Chemical structure of cytopiloyne (2-β-D-glucopyranosyloxy-1-hydroxytrideca-5,7,9,11-tetrayne). (B) Four groups of 6-to-8-week-old diabetic db/db mice were tube-fed with vehicle, cytopiloyne (CP, 0.5 and 2.5 mgkg^−1 day^−1) or glimepiride (GLM, 2.5 mgkg^−1 day^−1) from 0 to 42 days post-treatment. Blood glucose (BG) levels in these mice were measured. (C) Blood insulin levels from the mice of FIG. 1B. (D) IPGTT was performed in the db/db mice of FIG. 1B on day 0, 28 and 42, and blood glucose levels were monitored for 3.5 h. […] Results from 3 independent experiments are expressed as mean±SEM, and P<0.05 was considered to be statistically significant (*). […]
After 0.5 h, the levels of postprandial blood sugar and insulin from the mice were monitored for additional 4 h. For continued administration, diabetic db/db males were grouped and tube-fed with vehicle, cytopiloyne (0.5 or 2.5 mgkg^−1 day^−1) or glimepiride (2.5 mg kg^−1 day^−1) for the indicated time, while levels of blood sugar, insulin, and glycosylated HbA1c, and glucose tolerance in these mice were determined. […] Unless indicated otherwise, the mice were fasted for 16 h, then Postprandial blood glucose and insulin in these mice were measured. […]

RIN-m5F cells = test: Intracellular calcium (Fura 2-AM) in RIN-m5F cells; type: cell-based, rat; settings: cytopiloyne 7, 14 and 28 μM, glucose 16.7 mM
Experimental: FIGS. 5A-D show the effects of cytopiloyne on calcium mobilization, DAG generation and PKCa activation. (A) After Fura 2-AM loading, RIN-m5F cells were stimulated with 16.7 mM glucose (HG) and cytopiloyne at 7, 14 and 28 μM. Level of intracellular calcium, as shown by the 340/380 nm ratio, was detected using a fluorescence spectrophotometer. (B) RIN-m5F cells were pulsed with ^3H-myristic acid (5 Cim1^−1) for 16 hours. After washing, the cells were stimulated with glucose, cytopiloyne, PMA and glimepiride. Total lipids were separated on a silica thin layer plate. DAG and cholesterol were visualized with iodine vapor and identified by their standards. (C) RIN-m5F cells were incubated with vehicle (Mock), cytopiloyne (CP, 3, 7 and 14 μM), PMA (1 μM) and 16.7 mM (HG). Membrane or cytosolic proteins were subjected to Western blot with anti-PKCα and anti-Actin antibodies. (D) RIN-m5F cells were incubated with vehicle (Mock), cytopiloyne (CP 7 μM) and PMA (1 μM). […]
RIN-m5F cells were pre-loaded with Fura 2-AM (5 μM) in modified Krebs-Henseleit buffer for 30 min at 25° C. […] Intracellular calcium of the cells was measured using a fluorescence spectrophotometer (CAF 110, Jasco, Tokyo, Japan) at excitation wavelengths of 340 and 380 nm and an emission wavelength of 500 nm. The ratio of fluorescence intensity at 340 nm to that at 380 nm represents the level of intracellular calcium.

HIT-T15 cells = test: Insulin secretion of β-cell line with PMA, GF109203X and cytopiloyne (ELISA); type: cell-based, rat; settings: FIG. 6A; glucose 16.7 mM

`CC#CC#CC#CC#CCCC(CO)O[C@@H]1O[C@H](CO)[C@@H](O)[C@H](O)[C@H]1O` (stereo partly drawn) [cytopiloyne, 2-β-D-glucopyranosyloxy-1-hydroxytrideca-5,7,9,11-tetrayne] was tested, and the “blood insulin levels, long-term treatment” value (db/db mice; 0.5 and 2.5 mgkg^−1 day^−1, db/db mice (FIG. 1C)) was “increased blood insulin levels to a greater extent than glimepiride”, the “blood sugar-lowering / anti-diabetic effect compared with glimepiride 2.5 mgkg^−1” value (db/db mice; 2.5 mgkg^−1 day^−1, long-term, fed db/db mice (FIG. 1B)) was “slightly therapeutically better than glimepiride at 2.5 mgkg^−1; also recorded: modestly better anti-diabetic effects at the same dose” and the “intracellular calcium (340/380 nm ratio)” value (RIN-m5F cells) was “increased intracellular calcium in a dose-dependent manner”. The “insulin secretion in β-cell line” value (HIT-T15 cells) was “stimulated insulin secretion”.
